Data from PMC12446476 (Nature Communications, 2025).
≈ marks a conversion by molar mass, not a printed value. Read-outs that look alike come from different tables or passages of the source.

Tested on: N. gonorrhoeae
Experiment: MIC determination, Etest
Assay type: cell-based, Neisseria gonorrhoeae
Conditions: for MIC: Neisseria gonorrhoeae, comparator antibiotics, read-out: Minimum inhibitory concentration
Source text: The 2024 WHO N. gonorrhoeae reference strains were used for quality control. Only whole MIC doubling dilutions are reported. Clinical breakpoints or the epidemiological cutoff (ECOFF, to indicate azithromycin resistance) from EUCAST (v14.0, https://www.eucast.org/clinical_breakpoints) were used to classify isolates as antimicrobial susceptible or resistant. […] Two times the standard inoculum defined by CLSI was used to establish consistent growth in untreated control samples for some strains. In vitro time-kill assays were performed according to CLSI guidelines[65] using Columbia Broth (BD Difco) supplemented with 1% IsoVitaleX Enrichment (BD). Viable bacterial counts were generated by plating 10-fold serially diluted samples on GC agar plates containing 1% IsoVitaleX Enrichment (BD).

CC[C@H]1OC(=O)[C@H](C)[C@@H](O[C@H]2C[C@@](C)(OC)[C@@H](O)[C@H](C)O2)[C@H](C)[C@@H](O[C@@H]2O[C@H](C)C[C@H](N(C)C)[C@H]2O)[C@](C)(O)C[C@@H](C)CN(C)[C@H](C)[C@@H](O)[C@]1(C)O [Azithromycin]
MIC (clinical N. gonorrhoeae isolate 50, Sweden 2023): 0.25 µg/mL (≈ 0.334 µM) | MIC (clinical N. gonorrhoeae isolate 51, Sweden 2023): 0.064 µg/mL (≈ 0.0854 µM) | MIC (clinical N. gonorrhoeae isolate 52, Sweden 2023): 0.25 µg/mL (≈ 0.334 µM) | MIC (clinical N. gonorrhoeae isolate 53, Sweden 2023): 0.125 µg/mL (≈ 0.167 µM) | MIC (clinical N. gonorrhoeae isolate 54, Sweden 2023): 0.5 µg/mL (≈ 0.668 µM) | MIC (clinical N. gonorrhoeae isolate 55, Sweden 2023): 0.5 µg/mL (≈ 0.668 µM) | MIC (clinical N. gonorrhoeae isolate 56, Sweden 2023): 0.25 µg/mL (≈ 0.334 µM) | MIC (clinical N. gonorrhoeae isolate 57, Sweden 2023): 0.064 µg/mL (≈ 0.0854 µM) | MIC (clinical N. gonorrhoeae isolate 58, Sweden 2023): 0.125 µg/mL (≈ 0.167 µM) | MIC (clinical N. gonorrhoeae isolate 59, Sweden 2023): 0.064 µg/mL (≈ 0.0854 µM) | MIC (clinical N. gonorrhoeae isolate 60, Sweden 2023): 0.5 µg/mL (≈ 0.668 µM) | MIC (clinical N. gonorrhoeae isolate 61, Sweden 2023): 0.125 µg/mL (≈ 0.167 µM) | MIC (clinical N. gonorrhoeae isolate 62, Sweden 2023): 0.016 µg/mL (≈ 0.0214 µM) | MIC (clinical N. gonorrhoeae isolate 63, Sweden 2023): 0.25 µg/mL (≈ 0.334 µM) | MIC (clinical N. gonorrhoeae isolate 64, Sweden 2023): 0.5 µg/mL (≈ 0.668 µM) | MIC (clinical N. gonorrhoeae isolate 65, Sweden 2023): 0.064 µg/mL (≈ 0.0854 µM) | MIC (clinical N. gonorrhoeae isolate 66, Sweden 2023): 0.25 µg/mL (≈ 0.334 µM) | MIC (clinical N. gonorrhoeae isolate 67, Sweden 2023): 0.25 µg/mL (≈ 0.334 µM) | MIC (clinical N. gonorrhoeae isolate 68, Sweden 2023): 0.064 µg/mL (≈ 0.0854 µM) | MIC (clinical N. gonorrhoeae isolate 69, Sweden 2023): 0.25 µg/mL (≈ 0.334 µM) | MIC (clinical N. gonorrhoeae isolate 70, Sweden 2023): 0.125 µg/mL (≈ 0.167 µM) | MIC (clinical N. gonorrhoeae isolate 71, Sweden 2023): 2 µg/mL (≈ 2.67 µM) | MIC (clinical N. gonorrhoeae isolate 72, Sweden 2023): 0.125 µg/mL (≈ 0.167 µM) | MIC (clinical N. gonorrhoeae isolate 73, Sweden 2023): 0.064 µg/mL (≈ 0.0854 µM) | MIC (clinical N. gonorrhoeae isolate 74, Sweden 2023): 0.5 µg/mL (≈ 0.668 µM) | MIC (clinical N. gonorrhoeae isolate 75, Sweden 2023): 0.5 µg/mL (≈ 0.668 µM) | MIC (clinical N. gonorrhoeae isolate 76, Sweden 2023): 0.125 µg/mL (≈ 0.167 µM) | MIC (clinical N. gonorrhoeae isolate 77, Sweden 2023): 0.064 µg/mL (≈ 0.0854 µM) | MIC (clinical N. gonorrhoeae isolate 78, Sweden 2023): 0.25 µg/mL (≈ 0.334 µM) | MIC (clinical N. gonorrhoeae isolate 79, Sweden 2023): 0.064 µg/mL (≈ 0.0854 µM) | MIC (clinical N. gonorrhoeae isolate 80, Sweden 2023): 0.125 µg/mL (≈ 0.167 µM) | MIC (clinical N. gonorrhoeae isolate 81, Sweden 2023): 0.25 µg/mL (≈ 0.334 µM) | MIC (clinical N. gonorrhoeae isolate 82, Sweden 2023): 2 µg/mL (≈ 2.67 µM) | MIC (clinical N. gonorrhoeae isolate 83, Sweden 2023): 0.032 µg/mL (≈ 0.0427 µM) | MIC (clinical N. gonorrhoeae isolate 84, Sweden 2023): 0.5 µg/mL (≈ 0.668 µM) | MIC (clinical N. gonorrhoeae isolate 85, Sweden 2023): 0.125 µg/mL (≈ 0.167 µM) | MIC (clinical N. gonorrhoeae isolate 86, Sweden 2023): 0.125 µg/mL (≈ 0.167 µM) | MIC (clinical N. gonorrhoeae isolate 87, Sweden 2023): 0.125 µg/mL (≈ 0.167 µM) | MIC (clinical N. gonorrhoeae isolate 88, Sweden 2023): 0.5 µg/mL (≈ 0.668 µM) | MIC (clinical N. gonorrhoeae isolate 89, Sweden 2023): 0.25 µg/mL (≈ 0.334 µM) | MIC (clinical N. gonorrhoeae isolate 90, Sweden 2023): 0.125 µg/mL (≈ 0.167 µM) | MIC (clinical N. gonorrhoeae isolate 91, Sweden 2023): 0.032 µg/mL (≈ 0.0427 µM) | MIC (clinical N. gonorrhoeae isolate 92, Sweden 2023): 0.5 µg/mL (≈ 0.668 µM) | MIC (clinical N. gonorrhoeae isolate 93, Sweden 2023): 0.032 µg/mL (≈ 0.0427 µM) | MIC (clinical N. gonorrhoeae isolate 94, Sweden 2023): 0.032 µg/mL (≈ 0.0427 µM) | MIC (clinical N. gonorrhoeae isolate 95, Sweden 2023): 0.5 µg/mL (≈ 0.668 µM) | MIC (clinical N. gonorrhoeae isolate 96, Sweden 2023): 0.25 µg/mL (≈ 0.334 µM) | MIC (clinical N. gonorrhoeae isolate 97, Sweden 2023): 0.25 µg/mL (≈ 0.334 µM) | MIC (clinical N. gonorrhoeae isolate 98, Sweden 2023): 0.064 µg/mL (≈ 0.0854 µM) | MIC (clinical N. gonorrhoeae isolate 99, Sweden 2023): 0.064 µg/mL (≈ 0.0854 µM) | MIC (clinical N. gonorrhoeae isolate 100, Sweden 2023): 0.064 µg/mL (≈ 0.0854 µM) | AMR phenotype (susceptibility category, EUCAST) (WHO F): S | AMR phenotype (susceptibility category, EUCAST) (WHO H): S | AMR phenotype (susceptibility category, EUCAST) (WHO K): S | AMR phenotype (susceptibility category, EUCAST) (WHO L): S | AMR phenotype (susceptibility category, EUCAST) (WHO M): S | AMR phenotype (susceptibility category, EUCAST) (WHO O): S | AMR phenotype (susceptibility category, EUCAST) (WHO P): R | AMR phenotype (susceptibility category, EUCAST) (WHO Q): R | AMR phenotype (susceptibility category, EUCAST) (WHO R): S | AMR phenotype (susceptibility category, EUCAST) (WHO S2): R | AMR phenotype (susceptibility category, EUCAST) (WHO U): R | AMR phenotype (susceptibility category, EUCAST) (WHO V): R | AMR phenotype (susceptibility category, EUCAST) (WHO X): S | AMR phenotype (susceptibility category, EUCAST) (WHO Y): S | AMR phenotype (susceptibility category, EUCAST) (WHO Z): S
